Measured values as given in patent publication US11401271B2, “Fused heterocyclic compound, pyrazole-ring-containing fused heterocyclic compound, agricultural composition containing thereof, and method of using the composition” (SOUTH CHINA AGRICULTURAL UNIVERSITY, priority 2017, dated 2022).
Read-outs that look alike come from different tables or passages of the source.

How the values were obtained:
Assay in all cases: whole plant or invertebrate
Assay type in all cases: in vivo
Plutella xylostella = conditions: for Plutella xylostella Mortality (%) / Plutella xylostella Mortality (%) 500 ppm: 500 ppm, 2nd-instar larvae, leaf immersion feeding; for mortality at 500 ppm: Plutella xylostella, read-out: Plutella xylostella Mortality (%) 500 ppm
Outline: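 Cabbage leaf discs dipped 5 s in compound at 500 ppm (0.05% Tween-80 aqueous), air-dried, fed to about 35 2nd-instar larvae at 28° C., triplicate. Dead larvae counted after 24 h; mortality (%) corrected against Tween-80 control.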

Spodoptera exigua = conditions: for Spodoptera exigua Mortality (%) / Spodoptera exigua Mortality (%) 500 ppm: 500 ppm, 2nd-instar larvae, leaf immersion feeding; for Spodoptera exigua Mortality (%) 500 ppm: 24 hours; for mortality at 500 ppm: Spodoptera exigua, 24 h, read-out: Spodoptera exigua Mortality (%) 500 ppm
Outline: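 Cabbage leaf discs dipped 5 s in 500 ppm compound (0.05% Tween-80 aqueous), air-dried, fed to about 35 2nd-instar larvae at 28° C, three replicates. Deaths counted at 24 h; mortality corrected against Tween-80 control.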

Aphis craccivora = conditions: for Aphis craccivora Mortality (%) / Aphis craccivora Mortality (%) 500 ppm: 500 ppm, wingless adults; for Aphis craccivora Mortality (%): immersion 5 seconds, counted after 24 hours; for Aphis craccivora Mortality (%) 500 ppm: impregnation method, 24 hours; for mortality at 500 ppm: Aphis craccivora, 24 h, read-out: Aphis craccivora Mortality (%) 500 ppm
Outline: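 Wingless adults feeding on bean sprouts were dipped with the sprouts for 5 s in 500 ppm compound in aqueous 0.05% Tween-80, air-dried, then held at 23° C. Dead aphids counted after 24 h, triplicate, with 0.05% Tween-80 as control. Mortality (%) = (control live − treated live)/control live × 100.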

Solenopsis invicta = conditions: water test tube poison-feeding; for Solenopsis invicta Mortality (%) 24 h / Solenopsis invicta Mortality (%) 72 h / Solenopsis invicta Mortality (%) 100 ppm 24 h / Solenopsis invicta Mortality (%) 100 ppm 72 h: 100 ppm; for mortality at 100 ppm: Solenopsis invicta
Outline: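 Fire ants fed compound by water test-tube poison-feeding at 100 ppm in aqueous 0.05% Tween-80/5% honey (from 10 g/L DMSO stock), kept at 25 °C. Live and dead ants counted at 24 and 72 h; mortality (%) calculated relative to live ants in the untreated control.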

[1] = 24 h, read-out: Solenopsis invicta Mortality (%) 100 ppm 24 h, 100 ppm, 24 h
[2] = 72 h, read-out: Solenopsis invicta Mortality (%) 100 ppm 72 h, 100 ppm, 72 h

SMILES | Plutella xylostella Mortality (%) (Plutella xylostella) | Spodoptera exigua Mortality (%) (Spodoptera exigua) | Aphis craccivora Mortality (%) (Aphis craccivora) | Solenopsis invicta Mortality (%) 24 h (Solenopsis invicta; 24 h) | Solenopsis invicta Mortality (%) 72 h (Solenopsis invicta; 72 h) | mortality at 500 ppm (Plutella xylostella) | mortality at 500 ppm (Spodoptera exigua) | mortality at 500 ppm (Aphis craccivora) | mortality at 100 ppm (Solenopsis invicta; [1]) | mortality at 100 ppm (Solenopsis invicta; [2]) | also measured
CC(=O)C1(C(=O)C(F)(F)F)Nc2c([S+]([O-])C(F)(F)F)c(C#N)nn2-c2cc(C(F)(F)F)cc(Cl)c21 (stereo not drawn) [c-39] | 95% | 89% | 100% | 24% | 90% | – | – | – | – | – | –
CC=CC1Nc2c([S+]([O-])C(F)(F)F)c(C(F)(F)F)nn2-c2c(Cl)cc(C(F)(F)F)cc21 (stereo not drawn) [d-119] | 89% | 90% | 92% | 26% | 83% | – | – | – | – | – | –
N#Cc1nn2c(c1[S+]([O-])C(F)(F)F)NC(C#N)(C#N)c1cc(C(F)(F)F)cnc1-2 (stereo not drawn) [a-52] | – | – | – | – | – | – | – | – | – | – | Plutella xylostella Mortality (%) 500 ppm (Plutella xylostella): 100%; Spodoptera exigua Mortality (%) 500 ppm (Spodoptera exigua): 89%; Aphis craccivora Mortality (%) 500 ppm (Aphis craccivora): 91%; Solenopsis invicta Mortality (%) 100 ppm 24 h (Solenopsis invicta; 24 h): 20%; Solenopsis invicta Mortality (%) 100 ppm 72 h (Solenopsis invicta; 72 h): 89%
CNC(=O)C1Nc2c([S+]([O-])C(F)(F)F)c(C(F)(F)F)nn2-c2cncc(Cl)c21 (stereo not drawn) [b-99] | 91% | 85% | 100% | 24% | 90% | – | – | – | – | – | –
CC(=O)Nc1cc2n(n1)-c1cnccc1C(F)(CC(F)(F)F)N2 (stereo not drawn) [Compound A39] | – | – | – | – | – | 100% | 100% | 100% | 24% | 100% | –
C=CC1Nc2c(Br)c(C#N)nn2-c2c(Cl)cc(C(F)(F)F)cc21 (stereo not drawn) [Compound C8] | – | – | – | – | – | 91% | 85% | 95% | 36% | 92% | –
N#Cc1nn2c(c1[S+]([O-])C(F)(F)F)NC(Br)(CC(=O)C(F)(F)F)c1cc(C(F)(F)F)cc(Cl)c1-2 (stereo not drawn) [d-63] | 100% | 95% | 100% | 20% | 90% | – | – | – | – | – | –
N#Cc1nn2c(c1-c1ccccc1C(F)(F)F)NC(CCl)(C(O)CO)c1cc(C(F)(F)F)cc(Cl)c1-2 (stereo not drawn) [Compound C53] | – | – | – | – | – | 78% | 89% | 90% | 28% | 97% | –
N#CCC1(C(=O)C(F)(F)F)Nc2c([S+]([O-])C(F)(F)F)c(C#N)nn2-c2ncc(C(F)(F)F)cc21 (stereo not drawn) [a-30] | – | – | – | – | – | – | – | – | – | – | Plutella xylostella Mortality (%) 500 ppm (Plutella xylostella): 96%; Spodoptera exigua Mortality (%) 500 ppm (Spodoptera exigua): 90%; Aphis craccivora Mortality (%) 500 ppm (Aphis craccivora): 100%; Solenopsis invicta Mortality (%) 100 ppm 24 h (Solenopsis invicta; 24 h): 20%; Solenopsis invicta Mortality (%) 100 ppm 72 h (Solenopsis invicta; 72 h): 97%
CCc1nn2c(c1Br)NC(/C=C\C(=O)OC)(/C=C/C(=O)OC)c1cc(C(F)(F)F)cc(Cl)c1-2 (stereo not drawn) [Compound C63] | – | – | – | – | – | 98% | 90% | 96% | 29% | 98% | –
N#Cc1nn2c(c1[S+]([O-])C(F)(F)F)NC(C(O)CO)(C(F)(F)F)c1cc(C(F)(F)F)cc(Cl)c1-2 (stereo not drawn) [Compound C57] | – | – | – | – | – | 78% | 76% | 80% | 20% | 89% | –
COC(=O)CC1(C(=O)OC)Nc2c([S+]([O-])C(F)(F)F)c(C#N)nn2-c2cc(C(F)(F)F)c(Cl)cc21 (stereo not drawn) [e-19] | 100% | 100% | 100% | 31% | 90% | – | – | – | – | – | –
CNC(=O)c1nn2c(c1Br)NC(C)(C)c1ccccc1-2 [Compound A6] | – | – | – | – | – | 100% | 100% | 100% | 44% | 100% | –
CC(C)(C)Nc1c(C#N)nn2c1NC(C)(C)c1ccccc1-2 [Compound A16] | – | – | – | – | – | 86% | 100% | 100% | 20% | 87% | –
CNC(=O)CC1Nc2c(OC(F)(F)F)c(C#N)nn2-c2cncc(Cl)c21 (stereo not drawn) [b-123] | 99% | 95% | 100% | 24% | 100% | – | – | – | – | – | –
COC(=O)C1(CBr)Nc2c([S+]([O-])C(F)(F)F)c(C#N)nn2-c2c(Cl)cc(C(F)(F)F)cc21 (stereo not drawn) [d-34] | 90% | 95% | 100% | 25% | 93% | – | – | – | – | – | –
CC(=O)Nc1c(C#N)nn2c1NC(C)(C)c1ccccc1-2 [Compound A17] | – | – | – | – | – | 100% | 100% | 100% | 34% | 100% | –
CCOC(=O)C1(CC(=O)OC(C(F)(F)F)C(F)(F)F)Nc2c([S+]([O-])C(F)(F)F)c(C#N)nn2-c2c(Cl)cc(C(F)(F)F)cc21 (stereo not drawn) [d-42] | 100% | 100% | 100% | 31% | 100% | – | – | – | – | – | –
COC(=O)C1(CC#N)Nc2c([S+]([O-])C(F)(F)F)c(C#N)nn2-c2cncc(Cl)c21 (stereo not drawn) [b-2] | 100% | 95% | 100% | 19% | 93% | – | – | – | – | – | –
COC(=O)C1(CC(=O)OCC(F)(F)F)Nc2c([S+]([O-])C(F)(F)F)c(C#N)nn2-c2c(Cl)cc(C(F)(F)F)cc21 (stereo not drawn) [d-27] | 100% | 100% | 100% | 14% | 100% | – | – | – | – | – | –
COC(=O)C1(CC(N)=O)Nc2c([S+]([O-])C(F)(F)F)c(C#N)nn2-c2c(Cl)cc(C(F)(F)F)cc21 (stereo not drawn) [d-20] | 100% | 100% | 100% | 14% | 100% | – | – | – | – | – | –
COC(=O)CC1(C(=O)OC)Nc2c(C#N)c(C(F)(F)F)nn2-c2cncc(Cl)c21 (stereo not drawn) [b-136] | 100% | 100% | 100% | 20% | 97% | – | – | – | – | – | –
N#Cc1nn2c(c1[S+]([O-])C(F)(F)F)NC(Cl)(CBr)c1cc(C(F)(F)F)cnc1-2 (stereo not drawn) [a-45] | – | – | – | – | – | – | – | – | – | – | Plutella xylostella Mortality (%) 500 ppm (Plutella xylostella): 100%; Spodoptera exigua Mortality (%) 500 ppm (Spodoptera exigua): 91%; Aphis craccivora Mortality (%) 500 ppm (Aphis craccivora): 100%; Solenopsis invicta Mortality (%) 100 ppm 24 h (Solenopsis invicta; 24 h): 20%; Solenopsis invicta Mortality (%) 100 ppm 72 h (Solenopsis invicta; 72 h): 90%
O=C(CC1Nc2c([S+]([O-])C(F)(F)F)c(C(F)(F)F)nn2-c2c(Cl)cc(C(F)(F)F)cc21)C(F)(F)F (stereo not drawn) [d-103] | 100% | 98% | 100% | 26% | 93% | – | – | – | – | – | –
